According to patent US8604044B2, “Quinazoline based EGFR inhibitors containing a zinc binding moiety” (Curis, Inc., priority 2006, dated 2013):

Columns and labels:
HDAC = HDAC fluorimetric assay (HDAC enzymatic activity, HeLa nuclear extract); format: biochemical; conditions: for IC50: HeLa nuclear extract, read-out: HDAC IC50 grading
Description: HDAC inhibitors were screened using an HDAC fluorimetric assay kit (AK-500, Biomol, Plymouth Meeting, Pa.).
Each assay was setup as follows: Defrosted all kit components and kept on ice until use. […] Prepared dilutions of Trichostatin A (TSA, positive control) and tested compounds in assay buffer (5× of final concentration). Diluted Fluor de Lys™ Substrate in assay buffer to 100 uM (50 fold=2× final). Diluted Fluor de Lys™ developer concentrate 20-fold (e.g. 50 μl plus 950 μl Assay Buffer) in cold assay buffer. Second, diluted the 0.2 mM Trichostatin A 100-fold in the 1× Developer (e.g. 10 μl in 1 ml; final Trichostatin A concentration in the 1× Developer=2 μM; final concentration after addition to HDAC/Substrate reaction=1 μM). Added Assay buffer, diluted trichostatin A or test inhibitor to appropriate wells of the microtiter plate. Added diluted HeLa extract or other HDAC sample to all wells except for negative controls.

HER2 = target: T1, HER2 (Homo sapiens, UniProt P04626); assay: Radioisotope assay for HER2; format: biochemical; conditions: read-out: HER2/ErB2 IC50 grading
T1 construct: human HER2 amino acids 679-1255; host or cells: baculovirus in Sf9 insect cells
Description: Protocol for Radioisotope Assay for HER2
10 nM HER2 and 0.1 mg/ml polyEY were placed in the reaction buffer and 2 mM MnCl2, 1 μM ATP and 1% DMSO final were added. The reaction mixture was incubated for 2 hours at room temperature.
MW=91.6 kDa. […] Enzyme is in 25 mM Tris-HCl, pH 8.0, 100 mM NaCl, 0.05% Tween-20, 50% glycerol, 10 mM reduced glutathione, and 3 mM DTT.

human EGFR = target: T2, human EGFR (Homo sapiens, UniProt P00533); assay: HTScan EGF Receptor Kinase Assay; format: biochemical; conditions: for IC50: read-out: EGFR IC50 grading
T2 construct: human EGFR (His672-Ala1210); purchased Cell Signaling Technologies; host or cells: baculovirus expression system
Description: The ability of compounds to inhibit receptor kinase (EGFR) activity was assayed using HTScan™ EGF Receptor Kinase Assay Kits (Cell Signaling Technologies, Danvers, Mass.). […] The protein was purified by one-step affinity chromatography using glutathione-agarose.
Immediately transfer enzyme from −80° C. to ice. Allowed enzyme to thaw on ice. […] Returned immediately to ice. […] Incubated reaction plate at room temperature for 30 minutes. […] Added 100 μl/well primary antibody. Incubated at room temperature for 60 minutes. […] Added 100 μl/well diluted antibody. Incubated at room temperature for 30 minutes. […] Incubated at room temperature for 5 minutes.

T2 sequence (P00533 672-1210): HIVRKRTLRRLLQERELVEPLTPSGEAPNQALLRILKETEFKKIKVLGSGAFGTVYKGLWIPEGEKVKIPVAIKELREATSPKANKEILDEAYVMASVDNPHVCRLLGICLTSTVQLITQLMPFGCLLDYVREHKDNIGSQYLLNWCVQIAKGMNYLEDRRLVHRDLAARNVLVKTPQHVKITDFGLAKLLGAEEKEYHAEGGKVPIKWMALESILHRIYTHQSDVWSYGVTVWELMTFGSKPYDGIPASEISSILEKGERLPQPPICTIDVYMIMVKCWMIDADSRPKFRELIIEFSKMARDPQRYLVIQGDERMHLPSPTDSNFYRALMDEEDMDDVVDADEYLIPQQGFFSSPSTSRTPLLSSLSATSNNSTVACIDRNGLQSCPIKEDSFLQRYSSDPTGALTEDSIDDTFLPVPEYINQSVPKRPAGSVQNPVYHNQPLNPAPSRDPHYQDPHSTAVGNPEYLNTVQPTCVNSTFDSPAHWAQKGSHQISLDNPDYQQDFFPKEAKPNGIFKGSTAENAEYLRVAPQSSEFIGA
T1 sequence (P04626 679-1255): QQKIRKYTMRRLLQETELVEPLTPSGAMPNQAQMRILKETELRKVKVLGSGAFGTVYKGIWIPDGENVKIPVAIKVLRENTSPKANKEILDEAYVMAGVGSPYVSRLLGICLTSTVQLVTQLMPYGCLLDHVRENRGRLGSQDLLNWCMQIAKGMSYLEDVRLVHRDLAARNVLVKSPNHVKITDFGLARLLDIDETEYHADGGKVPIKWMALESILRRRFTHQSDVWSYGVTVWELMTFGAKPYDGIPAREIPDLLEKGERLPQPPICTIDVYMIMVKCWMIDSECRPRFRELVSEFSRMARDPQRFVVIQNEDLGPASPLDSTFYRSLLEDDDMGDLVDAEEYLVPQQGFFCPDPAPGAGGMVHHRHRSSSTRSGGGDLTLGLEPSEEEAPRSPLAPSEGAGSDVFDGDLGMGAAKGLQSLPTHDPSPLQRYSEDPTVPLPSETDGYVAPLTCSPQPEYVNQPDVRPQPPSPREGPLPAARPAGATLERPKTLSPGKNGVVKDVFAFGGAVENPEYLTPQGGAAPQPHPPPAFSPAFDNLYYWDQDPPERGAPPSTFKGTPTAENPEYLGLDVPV

| IC50 (HDAC) [nM] | IC50 (human EGFR) [nM] | melting point [°C] | Compound | IC50 (HER2) [nM] | activity in HDAC enzyme assay compared with SAHA (HDAC; FIG. 1) | activity in EFGR enzyme assay compared with erlotinib (human EGFR; FIG. 1) |
| --- | --- | --- | --- | --- | --- | --- |
| < 100 | – | – | C#Cc1cccc(Nc2ncnc3cc(OC)c(NC(=O)CCCCCCC(=O)NO)cc23)c1 [Compound 44, N^1-(4-(3-ethynylphenylamino)-7-methoxyquinazolin-6-yl)-N^8-hydroxyoctanediamide] | 100 to 1000 | – | – |
| < 100 | < 100 | – | C#Cc1cc(Nc2ncnc3cc(OC)c(OCCCCCCC(=O)NO)cc23)ccc1O [Compound 206] | < 100 | – | – |
| 100 to 1000 | < 100 | – | O=C(CCCCCCCNCc1ccc(-c2ccc3ncnc(Nc4ccc(OCc5cccc(F)c5)c(Cl)c4)c3c2)o1)NO [Compound 201] | < 100 | – | – |
| 100 to 1000 | – | 85.9 | O=C(CCCCOc1ccc2ncnc(Nc3ccc(F)c(Cl)c3)c2c1)NO [Compound 16, 5-(4-(3-chloro-4-fluorophenylamino)quinazolin-6-yloxy)-N-hydroxypentanamide] | – | – | – |
| < 100 | – | – | C#Cc1cc(Nc2ncnc3cc(OC)c(OCCCCCCC(=O)NO)cc23)ccc1F [Compound 75, 7-(4-(3-ethynyl-4-fluorophenylamino)-7-methoxyquinazolin-6-yloxy)-N-hydroxyheptanamide] | 100 to 1000 | – | – |
| 100 to 1000 | – | 118.2 to 144.3 | COc1cc2ncnc(N[C@H](C)c3ccc(F)cc3)c2cc1OCCCCCCC(=O)NO [Compound 81, (R)-7-(4-(1-(4-fluorophenyl)ethylamino)-7-methoxyquinazolin-6-yloxy)-N-hydroxyheptanamide] | – | – | – |
| 100 to 1000 | – | 120 | O=C(CCCCCCNCc1ccc(-c2ccc3ncnc(Nc4ccc(OCc5cccc(F)c5)c(Cl)c4)c3c2)o1)NO [Compound 178, 7-((5-(4-(3-chloro-4-(3-fluorobenzyloxy)phenylamino)quinazolin-6-yl)furan-2-yl)methylamino)-N-hydroxyheptanamide] | – | – | – |
| < 100 | < 100 | – | COCCOc1cc2c(Nc3ccc(F)c(Cl)c3)ncnc2cc1OCCCCCCC(=O)NO [Compound 167, 7-(4-(3-chloro-4-fluorophenylamino)-6-(2-methoxyethoxy)quinazolin-7-yloxy)-N-hydroxyheptanamide] | 100 to 1000 | – | – |
| > 10000 | – | 189 to 191 | C#Cc1cccc(Nc2ncnc3ccc(OCC(=O)NO)cc23)c1 [Compound 19, 2-(4-(3-ethynylphenylamino)quinazolin-6-yloxy)-N-hydroxyacetamide] | – | – | – |
| < 100 | < 100 | – | O=C(CCCCCCOc1ccc2ncnc(Nc3ccc(OCc4cccc(F)c4)c(Cl)c3)c2c1)NO [Compound 198, 7-(4-(3-chloro-4-(3-fluorobenzyloxy)phenylamino)quinazolin-6-yloxy)-N-hydroxyheptanamide] | < 100 | – | – |
| < 100 | < 100 | – | COCCOc1cc2ncnc(Nc3ccc(OCc4cccc(F)c4)c(Cl)c3)c2cc1OCCCCCCC(=O)NO [Compound 200] | < 100 | – | – |
| < 100 | – | 176 to 182 | C#Cc1cccc(Nc2ncnc3ccc(OCCCCCC(=O)NO)cc23)c1 [Compound 23, 6-(4-(3-ethynylphenylamino)quinazolin-6-yloxy)-N-hydroxyhexanamide] | – | – | – |
| > 10000 | – | – | C#Cc1cccc(Nc2ncnc3cc(OC)c(OCC(=O)NO)cc23)c1 [Compound 7, 2-(4-(3-ethynylphenylamino)-7-methoxyquinazolin-6-yloxy)-N-hydroxyacetamide] | < 100 | – | – |
| > 10000 | – | 170 | O=C(CCNCc1ccc(-c2ccc3ncnc(Nc4ccc(OCc5cccc(F)c5)c(Cl)c4)c3c2)o1)NO [Compound 174, 3-((5-(4-(3-Chloro-4-(3-fluorobenzyloxy)phenylamino)quinazolin-6-yl)furan-2-yl)methylamino)-N-hydroxypropanamide] | – | – | – |
| 1000 to 10000 | – | 182 to 186 | C#Cc1cccc(Nc2ncnc3ccc(OCCCC(=O)NO)cc23)c1 [Compound 21, 4-(4-(3-ethynylphenylamino)quinazolin-6-yloxy)-N-hydroxybutanamide] | – | – | – |
| < 100 | – | 128 to 132 | O=C(CCCOc1ccc2ncnc(Nc3ccc(F)c(Cl)c3)c2c1)NO [Compound 15, 4-(4-(3-chloro-4-fluorophenylamino)quinazolin-6-yloxy)-N-Hydroxybutanamide] | – | – | – |
| < 100 | < 100 | – | C#Cc1cccc(Nc2ncnc3cc(OCCCCCCC(=O)NO)c(OCCOC)cc23)c1 [Compound 168, 7-(4-(3-ethynylphenylamino)-6-(2-methoxyethoxy)quinazolin-7-yloxy)-N-hydroxyheptanamide] | 100 to 1000 | – | – |
| – | < 100 | – | C#Cc1cccc(Nc2ncnc3cc(O)c(OCCCCCCC(=O)NO)cc23)c1 [Compound 207] | < 100 | – | – |
| < 100 | – | – | C#Cc1cc(Nc2ncnc3cc(OCCOC)c(OCCCCCCC(=O)NO)cc23)ccc1F [Compound 76] | 100 to 1000 | – | – |

| Compound | IC50 (HDAC) [nM] | IC50 (human EGFR) [nM] | melting point [°C] | IC50 (HER2) [nM] | activity in HDAC enzyme assay compared with SAHA (HDAC; FIG. 1) | activity in EFGR enzyme assay compared with erlotinib (human EGFR; FIG. 1) |
| --- | --- | --- | --- | --- | --- | --- |
| COc1cc2ncnc(Nc3ccc(F)c(Cl)c3)c2cc1OCCCCCCN(O)C(N)=O [Compound 102] | – | < 100 | – | – | – | – |
| COc1cc2ncnc(Nc3ccc(F)c(Cl)c3)c2cc1SCCCCC(=O)NO [Compound 151, 5-(4-(3-chloro-4-fluorophenylamino)-7-methoxyquinazolin-6-ylthio)-N-hydroxypentanamide] | – | < 100 | – | < 100 | – | – |
| C#Cc1cccc(Nc2ncnc3cc(OCCCCCCC(=O)NO)c(OC)cc23)c1 [Compound 162, 7-(4-(3-ethynylphenylamino)-6-methoxyquinazolin-7-yloxy)-N-hydroxyheptanamide] | < 100 | < 100 | – | 100 to 1000 | – | – |
| COc1cc2ncnc(N[C@H](C)c3ccccc3)c2cc1OCCCCCCC(=O)NO [Compound 79, (R)—N-hydroxy-7-(7-methoxy-4-(1-phenylethylamino)quinazolin-6-yloxy)heptanamide] | < 100 | – | – | 100 to 1000 | – | – |
| COc1cc2ncnc(Nc3ccc(F)c(Cl)c3)c2cc1SCCCCCCC(=O)NO [Compound 155, 7-(4-(3-Chloro-4-fluorophenylamino)-7-methoxyquinazolin-6-ylthio)-N-hydroxyheptanamide] | – | < 100 | – | < 100 | – | – |
| COc1cc2ncnc(Nc3ccc(OCc4cccc(F)c4)c(Cl)c3)c2cc1OCCCCCCC(=O)NO [Compound 199, 7-(4-(3-chloro-4-(3-fluorobenzyloxy)phenylamino)-7-methoxyquinazolin-6-yloxy)-N-hydroxyheptanamide] | < 100 | < 100 | – | < 100 | – | – |
| COCCOc1cc2ncnc(Nc3ccc(F)c(Cl)c3)c2cc1OCCCCCCC(=O)NO [Compound 30, 7-(4-(3-Chloro-4-fluorophenylamino)-7-(2-methoxyethoxy)quinazolin-6-yloxy)-N-hydroxyheptanamide] | < 100 | – | – | 100 to 1000 | – | – |
| COc1cc2ncnc(Nc3ccc(F)c(Cl)c3)c2cc1NC(=O)CCCCCCC(=O)NO [Compound 40, N^1-(4-(3-chloro-4-fluorophenylamino)-7-methoxyquinazolin-6-yl)-N^8-hydroxyoctanediamide] | < 100 | – | – | 100 to 1000 | – | – |
| C#Cc1cccc(Nc2ncnc3cc(OC)c(OCCCCCC(=O)NO)cc23)c1 [Compound 11, 6-(4-(3-ethynylphenylamino)-7-methoxyquinazolin-6-yloxy)-N-hydroxyhexanamide] | < 100 | – | – | 100 to 1000 | – | – |
| COc1cc2c(Nc3ccc(F)c(Cl)c3)ncnc2cc1OCCCCCCC(=O)NO [Compound 161, 7-(4-(3-chloro-4-fluorophenylamino)-6-methoxyquinazolin-7-yloxy)-N-hydroxyheptanamide] | < 100 | – | – | 100 to 1000 | – | – |
| O=C(CCCCCCOc1ccc2ncnc(Nc3ccc(F)c(Cl)c3)c2c1)NO [Compound 18, 7-(4-(3-chloro-4-fluorophenylamino)quinazolin-6-yloxy)-N-hydroxyheptanamide] | < 100 | – | – | 100 to 1000 | – | – |
| COc1cc2ncnc(Nc3ccc(F)c(Cl)c3)c2cc1OCCCCCCC(=O)NO [Compound 6, 7-(4-(3-Chloro-4-fluorophenylamino)-7-methoxyquinazolin-6-yloxy)-N-hydroxyheptanamide] | < 100 | – | – | < 100 | more active | more active |
| COc1cc2ncnc(NCc3ccccc3)c2cc1OCCCCCCC(=O)NO [Compound 85, 7-(4-(Benzylamino)-7-methoxyquinazolin-6-yloxy)-N-hydroxyheptanamide] | < 100 | – | – | 100 to 1000 | – | – |
